pIC50: −log10 of the molar value. Where “and” joins values, the source holds several entries; their conditions need not be identical. Equal values may be shown once.
Tested on: HOP-62 multicell spheroids with HUVEC/MSC, viability
Test: Anticancer human tumor HOP-62 cell line growth inhibition [KRAS2];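 also: viability read after a week of compound exposure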;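 as to viability, T/C: 100% = DMSO vehicle-treated spheroids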
Conditions: for viability, T/C: stronger effect = lower value
From the text: Multicellular complex tumor spheroid response to RAS pathway inhibitors in combination with a targeted agents in patient-derived cell lines with oncogenic KRAS variants from multiple cancer types
A high-throughput screen of multi-cell type tumor spheroids was designed to identify active combinations of targeted small molecules and KRAS pathway inhibitors. Complex spheroids include a stromal component modeled by human endothelial cells (HUVEC) and fibroblasts modeled by human mesenchymal stem cells (MSCs). The concentration ranges selected for each drug and investigational agent were based upon clinically achievable concentrations if the clinical Cmax of the agent was known.
Compounds. The drugs and investigational agents: BI-3406 (NSC825286), BAY-293 (NSC824723), batoprotafib (TNO155; NSC825523), sotorasib (AMG 510; NSC818433), MRTX1257 (NSC819558), elimusertib (BAY 1895344; NSC800525), molibresib (GSK525762; NSC774829), temuterkib (LY3214996; NSC803410), venetoclax (NSC766270), alisertib (NSC759677), olaparib (NSC753686), talazoparib (NSC767125), erdafitinib (NSC781556), ipatasertib (NSC767898), cabozantinib (NSC761068), nintedanib (NSC756659), abemaciclib (NSC768073), docetaxel (NSC628503), trametinib (NSC758246), and sapanisertib (NSC764658) were obtained from the National Cancer Institute (NCI) Developmental Therapeutics Program Chemical Repository. The FDA-approved anticancer drug set is available from the Developmental Therapeutics Program. […] The stock solutions were prepared in dimethyl sulfoxide (DMSO, Sigma-Aldrich, St. Louis, MO, cat. D2650) at 800-fold the tested concentration and stored at -70 degrees C prior to their use. All drugs and investigational agents were tested over a range starting from a high concentration at or near the clinical Cmax and decreasing in half-log increments. If the clinical Cmax for an agent had not been determined, the highest concentration tested was 10 microM.
Cell Culture. All cells were maintained in an incubator at 37 degrees C and 5% CO2 with 95% humidity. The PDC lines were cultured according to standard operating procedures established by the NCI PDMR (https://pdmr.cancer.gov/sops/default.htm). Briefly, all PDCs were thawed and cultured in Matrigel-coated flasks prepared with a working solution of 1X Ham's F-12 nutrient mix, without supplementation (Invitrogen, Waltham, MA, cat. 11765054), 100 U/mL penicillin-streptomycin (Invitrogen, cat. 15140122), and 2.5% Matrigel (Corning Inc., Corning, NY, cat. 354248) for the first three passages. All PDCs were cultured in complete DMEM/F-12 media containing advanced DMEM/F-12 (Invitrogen, cat. 12634028), 4.9% defined fetal bovine serum, heat inactivated (HyClone Laboratories Inc., Logan, UT, cat. SH30070.03HI), 389 ng/mL hydrocortisone (Sigma-Aldrich, cat. H4001), 9.7 ng/mL human EGF recombinant protein (Invitrogen, cat. PHG0313), 23.4 microg/mL adenine (Sigma-Aldrich, cat. A2786), 97.3 U/mL penicillin-streptomycin (Invitrogen, cat. 15140122), 1.9 mM L-glutamine (Invitrogen, cat. 25030081), and 9.7 microM Y-27632 dihydrochloride (Tocris Bioscience, Bristol, United Kingdom, cat. 1254). The PDCs were cultured in complete DMEM/F12 media without 9.7 microM Y-27632 dihydrochloride for at least two passages prior to the screen. The established cell line HOP-62 was cultured in RPMI 1640 medium, HEPES (Invitrogen, cat. 22400105) with 10% defined fetal bovine serum (HyClone Laboratories Inc., cat. SH30070.03) and 2 mM L-glutamine (Invitrogen, cat. 25030081). The pooled donor HUVEC were cultured in endothelial cell growth medium 2 (PromoCell, Heidelberg, Germany, cat. C-22011) and the hMSC were cultured in mesenchymal stem cell growth medium 2 (PromoCell, cat. C-28009). For all experiments, HUVEC and hMSC were used at passages </=5, while the malignant cell lines were used at passages </=15. […]

[1] = curve of first compound, second compound 0.1 µM
[2] = curve of first compound, second compound 0.316 µM
[3] = curve of first compound, second compound 1 µM
[4] = curve of first compound, second compound 3.16 µM
[5] = curve of first compound, second compound 10 µM
[6] = second compound 0.1 µM, first compound 0.000316 µM
[7] = second compound 0.1 µM, first compound 0.001 µM
[8] = second compound 0.1 µM, first compound 0.00316 µM
[9] = second compound 0.1 µM, first compound 0.01 µM
[10] = second compound 0.1 µM, first compound 0.0316 µM
[11] = second compound 0.1 µM, first compound 0.1 µM
[12] = second compound 0.316 µM, first compound 0.000316 µM
[13] = second compound 0.316 µM, first compound 0.001 µM
[14] = second compound 0.316 µM, first compound 0.00316 µM
[15] = second compound 0.316 µM, first compound 0.01 µM
[16] = second compound 0.316 µM, first compound 0.0316 µM
[17] = second compound 0.316 µM, first compound 0.1 µM
[18] = second compound 1 µM, first compound 0.000316 µM
[19] = second compound 1 µM, first compound 0.001 µM
[20] = second compound 1 µM, first compound 0.00316 µM
[21] = second compound 1 µM, first compound 0.01 µM
[22] = second compound 1 µM, first compound 0.0316 µM
[23] = second compound 1 µM, first compound 0.1 µM
[24] = second compound 3.16 µM, first compound 0.000316 µM
[25] = second compound 3.16 µM, first compound 0.001 µM
[26] = second compound 3.16 µM, first compound 0.00316 µM
[27] = second compound 3.16 µM, first compound 0.01 µM
[28] = second compound 3.16 µM, first compound 0.0316 µM
[29] = second compound 3.16 µM, first compound 0.1 µM
[30] = second compound 10 µM, first compound 0.000316 µM
[31] = second compound 10 µM, first compound 0.001 µM
[32] = second compound 10 µM, first compound 0.00316 µM
[33] = second compound 10 µM, first compound 0.01 µM
[34] = second compound 10 µM, first compound 0.0316 µM
[35] = second compound 10 µM, first compound 0.1 µM
[36] = compound alone, run of 07/19/2021
[37] = compound alone, run of 07/26/2021

Row | SMILES | pIC50 [1] | pIC50 [2] | pIC50 [3] | pIC50 [4] | pIC50 [5] | viability, T/C [6] [%] | viability, T/C [7] [%] | viability, T/C [8] [%] | viability, T/C [9] [%] | viability, T/C [10] [%] | viability, T/C [11] [%] | viability, T/C [12] [%] | viability, T/C [13] [%] | viability, T/C [14] [%] | viability, T/C [15] [%] | viability, T/C [16] [%] | viability, T/C [17] [%] | viability, T/C [18] [%] | viability, T/C [19] [%] | viability, T/C [20] [%] | other results
1 | Cn1ncnc1[C@H]1c2n[nH]c(=O)c3cc(F)cc(c23)N[C@@H]1c1ccc(F)cc1 + CC1OCC2(CCN(c3cnc(Sc4ccnc(N)c4Cl)c(N)n3)CC2)C1N | < 7.00 | < 7.00 | 8.86 | > 9.50 | > 9.50 | 88.7 | 97.9 | 94.1 | 87.1 | 80.2 | 73 | 86.5 | 66.8 | 62.7 | 69.3 | 72.5 | 52.6 | 65.2 | 56.9 | 29.8 | viability, T/C [21]: 31.4%; viability, T/C [22]: 32.7%; viability, T/C [23]: 37.9%; viability, T/C [24]: 40.6%; viability, T/C [25]: 31.7%; viability, T/C [26]: 37%; viability, T/C [27]: 23.7%; viability, T/C [28]: 17.5%; viability, T/C [29]: 22.5%; viability, T/C [30]: 36.9%; viability, T/C [31]: 30.3%; viability, T/C [32]: 31%; viability, T/C [33]: 27.5%; viability, T/C [34]: 24.1%; viability, T/C [35]: 21.1%
2 | CC(C)n1nc(-c2ccc3oc(N)nc3c2)c2c(N)ncnc21 + CC1OCC2(CCN(c3cnc(Sc4ccnc(N)c4Cl)c(N)n3)CC2)C1N | 8.81 | 9.17 | 9.41 | > 9.50 | > 9.50 | 76.5 | 65.1 | 25.9 | 16.4 | 12.4 | 8.07 | 69.2 | 40.2 | 21.3 | 12 | 10 | 7.36 | 54.4 | 30.5 | 11.9 | viability, T/C [21]: 8.81%; viability, T/C [22]: 8.66%; viability, T/C [23]: 6.23%; viability, T/C [24]: 26.6%; viability, T/C [25]: 22.4%; viability, T/C [26]: 10.6%; viability, T/C [27]: 7.28%; viability, T/C [28]: 6.71%; viability, T/C [29]: 4.89%; viability, T/C [30]: 22.5%; viability, T/C [31]: 18.2%; viability, T/C [32]: 10.6%; viability, T/C [33]: 7%; viability, T/C [34]: 5.54%; viability, T/C [35]: 4.55%
3 | C=CC(=O)N1CCN(c2nc(=O)n(-c3c(C)ccnc3C(C)C)c3nc(-c4c(O)cccc4F)c(F)cc23)C(C)C1 (configuration not stated) |  |  |  |  |  |  |  |  |  |  |  |  |  |  |  |  |  |  |  |  | viability, T/C (compound 3.16 µM): 65.2% [middle of 17 runs]; pIC50 [36]: < 5.00 and 5.36; IC50 [37]: 8.23 µM [middle of 5 runs]
4 | CNCc1ccccc1-c1csc(C(C)Nc2nc(C)nc3cc(OC)c(OC)cc23)c1 (configuration not stated) |  |  |  |  |  |  |  |  |  |  |  |  |  |  |  |  |  |  |  |  | viability, T/C (compound 0.1 µM): 99.2% [middle of 17 runs]; viability, T/C (compound 10 µM): 0.22% [middle of 15 runs]; IC50 [36]: 1.54 µM [middle of 5 runs]; IC50 [37]: 1.73 µM [middle of 6 runs]
5 | Cn1ncnc1[C@H]1c2n[nH]c(=O)c3cc(F)cc(c23)N[C@@H]1c1ccc(F)cc1 + CNCc1ccccc1-c1csc(C(C)Nc2nc(C)nc3cc(OC)c(OC)cc23)c1 | < 7.00 | < 7.00 | < 7.00 | > 9.50 | > 9.50 | 98.2 | 92.1 | 91.8 | 97.1 | 86.5 | 71 | 101 | 93.9 | 89.4 | 83.7 | 79.3 | 74.9 | 69.2 | 73 | 81.2 | viability, T/C [21]: 78.1%; viability, T/C [22]: 68.9%; viability, T/C [23]: 53.7%; viability, T/C [24]: 0.2%; viability, T/C [25]: 0.14%; viability, T/C [26]: 0.99%; viability, T/C [27]: 0.21%; viability, T/C [28]: 2.25%; viability, T/C [29]: 5.87%; viability, T/C [30]: 0.12%; viability, T/C [31]: 0.17%; viability, T/C [32]: 0.16%; viability, T/C [33]: 0.15%; viability, T/C [34]: 0.68%; viability, T/C [35]: 0.19%

From PubChem BioAssay AID1963858 (Molecular Pharmacology Branch, DTP, NCI, 2024)
